Measured values reported in the supplement of paper PMC6045584.
± gives the standard deviation of the averaged measurements.

Compound: CC(=O)NCC(=O)N1[C@@H]2CC[C@H]1c1ccc(Nc3ncc(C(F)(F)F)c(NC4CCC4)n3)cc12
Test: surviving fraction relative to DMSO-only wells; higher = less growth inhibition
Conditions: 50 nM; exposure time: 5 days
Method in brief: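 Each tumour cell line was screened three times, and only lines with replicate Pearson r >0.7 and median Z' >0.3 were kept. Cells in log phase were seeded at 250–500 per well in 384-well plates, left 24 hours, then exposed continuously for five days to inhibitors at 0.5, 1, 5, 10, 50, 100, 500 and 1000 nM. Viability was read as CellTiter-Glo luminescence, with surviving fraction normalised to the median of DMSO-only wells.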

Point of comparison: HSSYII SYNOVIAL, surviving fraction 0.438 ± 0.017. Against it:
- SAOS2 BONE — higher, 1.03 ± 0.065
- MDAMB436 BREAST — higher, 0.937 ± 0.1
- 93VU HEADNECK — higher, 0.895 ± 0.055
- KPD BONE — higher, 0.903 ± 0.003
- SYO1 SYNOVIAL — within error, 0.388 ± 0.06
- BT20 BREAST — lower, 0.365 ± 0.054
- SUM44 BREAST — higher, 1.09 ± 0.025
- CAL120 BREAST — higher, 0.8605 ± 0.0059
- CHLA90 AUTONOMIC GANGLIA — higher, 0.754 ± 0.032
- HCC1806 BREAST — higher, 0.658 ± 0.057
- HCC78 LUNG — higher, 0.735 ± 0.07
- MFM223 BREAST — higher, 0.794 ± 0.082
- SG43 HEADNECK — higher, 0.703 ± 0.22
- HOS BONE — higher, 0.719 ± 0.025
- MDAMB468 BREAST — higher, 1.03 ± 0.047
- SG27 HEADNECK — higher, 0.948 ± 0.054
- ZR751 BREAST — higher, 0.774 ± 0.1
- MG63 BONE — higher, 0.816 ± 0.003
- HS57T BREAST — higher, 0.633 ± 0.069
- SUM159 BREAST — higher, 0.956 ± 0.085
- HCC1395 BREAST — higher, 0.962 ± 0.12
- SUM149.B1*.S BREAST — higher, 0.938 ± 0.047
- MDAMB453 BREAST — higher, 0.794 ± 0.091
- SCC90 HEADNECK — higher, 0.66 ± 0.13
- HMLE3 BREAST — higher, 0.807 ± 0.027
- HCC70 BREAST — higher, 0.864 ± 0.051
- LNCAP PROSTATE — within error, 0.416 ± 0.044
- HCT15 LARGE INTESTINE — within error, 0.394 ± 0.11
- MHM BONE — higher, 0.986 ± 0.034
- VCAP PROSTATE — higher, 0.681 ± 0.075

Same assay, conditions: 100 nM; exposure time: 5 days

Point of comparison: HCC1395 BREAST, surviving fraction 0.94 ± 0.13. Against it:
- SAOS2 BONE — lower, 0.704 ± 0.049
- MDAMB436 BREAST — within error, 0.762 ± 0.079
- 93VU HEADNECK — lower, 0.682 ± 0.0098
- KPD BONE — lower, 0.737 ± 0.033
- SYO1 SYNOVIAL — lower, 0.266 ± 0.027
- BT20 BREAST — lower, 0.199 ± 0.038
- SUM44 BREAST — higher, 1.27 ± 0.045
- CAL120 BREAST — lower, 0.643 ± 0.025
- CHLA90 AUTONOMIC GANGLIA — lower, 0.5867 ± 0.0055
- HCC1806 BREAST — lower, 0.471 ± 0.042
- HCC78 LUNG — lower, 0.188 ± 0.064
- MFM223 BREAST — lower, 0.699 ± 0.063
- SG43 HEADNECK — lower, 0.682 ± 0.093
- HOS BONE — lower, 0.675 ± 0.025
- MDAMB468 BREAST — lower, 0.507 ± 0.047
- SG27 HEADNECK — within error, 0.872 ± 0.043
- ZR751 BREAST — within error, 1.04 ± 0.094
- HSSYII SYNOVIAL — lower, 0.222 ± 0.015
- MG63 BONE — lower, 0.594 ± 0.021
- HS57T BREAST — lower, 0.535 ± 0.025
- SUM159 BREAST — lower, 0.72 ± 0.027
- SUM149.B1*.S BREAST — lower, 0.685 ± 0.049
- MDAMB453 BREAST — within error, 0.725 ± 0.094
- SCC90 HEADNECK — lower, 0.62 ± 0.084
- HMLE3 BREAST — lower, 0.689 ± 0.0078
- HCC70 BREAST — lower, 0.488 ± 0.026
- LNCAP PROSTATE — lower, 0.46 ± 0.046
- HCT15 LARGE INTESTINE — lower, 0.211 ± 0.034
- MHM BONE — within error, 0.96 ± 0.041
- VCAP PROSTATE — lower, 0.603 ± 0.016

Same assay, conditions: 500 nM; exposure time: 5 days

Point of comparison: SCC90 HEADNECK, surviving fraction 0.665 ± 0.048. Against it:
- SAOS2 BONE — lower, 0.157 ± 0.0075
- MDAMB436 BREAST — lower, 0.435 ± 0.021
- 93VU HEADNECK — lower, 0.331 ± 0.043
- KPD BONE — lower, 0.346 ± 0.009
- SYO1 SYNOVIAL — lower, 0.2212 ± 0.0014
- BT20 BREAST — lower, 0.293 ± 0.041
- SUM44 BREAST — higher, 1.4 ± 0.056
- CAL120 BREAST — lower, 0.489 ± 0.053
- CHLA90 AUTONOMIC GANGLIA — lower, 0.436 ± 0.045
- HCC1806 BREAST — within error, 0.583 ± 0.076
- HCC78 LUNG — lower, 0.236 ± 0.082
- MFM223 BREAST — lower, 0.47 ± 0.029
- SG43 HEADNECK — within error, 0.579 ± 0.039
- HOS BONE — lower, 0.585 ± 0.03
- MDAMB468 BREAST — lower, 0.146 ± 0.01
- SG27 HEADNECK — higher, 0.843 ± 0.061
- ZR751 BREAST — higher, 0.815 ± 0.062
- HSSYII SYNOVIAL — lower, 0.177 ± 0.015
- MG63 BONE — lower, 0.298 ± 0.021
- HS57T BREAST — lower, 0.443 ± 0.013
- SUM159 BREAST — lower, 0.56 ± 0.014
- HCC1395 BREAST — higher, 0.991 ± 0.027
- SUM149.B1*.S BREAST — lower, 0.569 ± 0.024
- MDAMB453 BREAST — lower, 0.541 ± 0.038
- HMLE3 BREAST — lower, 0.357 ± 0.026
- HCC70 BREAST — lower, 0.243 ± 0.052
- LNCAP PROSTATE — within error, 0.689 ± 0.0089
- HCT15 LARGE INTESTINE — lower, 0.17 ± 0.041
- MHM BONE — higher, 0.764 ± 0.02
- VCAP PROSTATE — lower, 0.433 ± 0.021

Same assay, conditions: 1000 nM; exposure time: 5 days

Point of comparison: SG27 HEADNECK, surviving fraction 0.919 ± 0.05. Against it:
- SAOS2 BONE — lower, 0.0957 ± 0.0029
- MDAMB436 BREAST — lower, 0.391 ± 0.03
- 93VU HEADNECK — lower, 0.114 ± 0.021
- KPD BONE — lower, 0.124 ± 0.0044
- SYO1 SYNOVIAL — lower, 0.237 ± 0.013
- BT20 BREAST — lower, 0.291 ± 0.055
- SUM44 BREAST — higher, 1.26 ± 0.051
- CAL120 BREAST — lower, 0.387 ± 0.047
- CHLA90 AUTONOMIC GANGLIA — lower, 0.301 ± 0.037
- HCC1806 BREAST — lower, 0.407 ± 0.04
- HCC78 LUNG — lower, 0.298 ± 0.075
- MFM223 BREAST — lower, 0.378 ± 0.027
- SG43 HEADNECK — lower, 0.569 ± 0.069
- HOS BONE — lower, 0.485 ± 0.012
- MDAMB468 BREAST — lower, 0.151 ± 0.018
- ZR751 BREAST — within error, 0.897 ± 0.038
- HSSYII SYNOVIAL — lower, 0.185 ± 0.0066
- MG63 BONE — lower, 0.227 ± 0.007
- HS57T BREAST — lower, 0.414 ± 0.019
- SUM159 BREAST — lower, 0.436 ± 0.0095
- HCC1395 BREAST — within error, 0.928 ± 0.092
- SUM149.B1*.S BREAST — lower, 0.499 ± 0.043
- MDAMB453 BREAST — lower, 0.413 ± 0.015
- SCC90 HEADNECK — lower, 0.613 ± 0.017
- HMLE3 BREAST — lower, 0.237 ± 0.041
- HCC70 BREAST — lower, 0.203 ± 0.036
- LNCAP PROSTATE — lower, 0.664 ± 0.097
- HCT15 LARGE INTESTINE — lower, 0.0853 ± 0.0072
- MHM BONE — lower, 0.629 ± 0.028
- VCAP PROSTATE — lower, 0.327 ± 0.038
